Laboratory results as given in PubChem BioAssay (NCI).
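How tested: cells in 96-well plates exposed to compound for 48 hours at five concentrations. GI50: concentration for 50% inhibition of growth. TGI denotes the concentration required for complete inhibition of growth.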

Experiments:
Assay in all cases: DTP human tumour cell line panel, 48 h
[1] = tested on: HCT-15 colon
[2] = tested on: PC-3 prostate
[3] = tested on: SK-MEL-2 melanoma
[4] = tested on: COLO 205 colon
[5] = tested on: NCI-H522 lung
[6] = tested on: HT29 colon
[7] = tested on: SNB-19 CNS
[8] = tested on: OVCAR-8 ovarian
[9] = tested on: BT-549 breast
[10] = tested on: SW-620 colon
[11] = tested on: SF-268 CNS
[12] = tested on: 786-0 renal
[13] = tested on: OVCAR-4 ovarian
[14] = tested on: SF-539 CNS
[15] = tested on: NCI-H226 lung
[16] = tested on: T-47D breast
[17] = tested on: RPMI-8226 leukemia
[18] = tested on: HOP-92 NSCLC
[19] = tested on: U251 CNS
[20] = tested on: KM12 colon
[21] = tested on: HOP-62 NSCLC
[22] = tested on: SK-MEL-28 melanoma
[23] = tested on: HS 578T breast
[24] = tested on: M14 melanoma
[25] = tested on: A498 renal
[26] = tested on: MDA-MB-231 breast
[27] = tested on: TK-10 renal
[28] = tested on: MCF7 breast

Question: Which results are given for CN1CCN(c2ccc(N3Cc4ccccc4OC4=C3C(=O)c3c(O)ccc(O)c3C4=O)cn2)CC1?
Answer: TGI [1]: 0.638 µM; GI50 [2]: 0.385 µM; TGI [2]: 1.63 µM; GI50 [3]: 0.738 µM; TGI [3]: 2.23 µM; GI50 [4]: 0.126 µM; TGI [4]: 0.302 µM; GI50 [5]: 0.0322 µM; TGI [5]: 0.134 µM; GI50 [6]: 0.209 µM; TGI [6]: 0.562 µM; GI50 [7]: 0.742 µM; TGI [7]: 2.57 µM; GI50 [8]: 0.37 µM; TGI [8]: 4.57 µM; GI50 [9]: 0.251 µM; TGI [9]: 0.723 µM; GI50 [10]: 0.196 µM; TGI [10]: 0.635 µM; GI50 [11]: 0.58 µM; TGI [11]: 2.43 µM; GI50 [12]: 0.191 µM; TGI [12]: 0.404 µM; GI50 [13]: 0.264 µM; TGI [13]: 0.855 µM; GI50 [14]: 0.233 µM; TGI [14]: 0.595 µM; GI50 [15]: 2.26 µM; TGI [15]: 12 µM; GI50 [16]: 0.184 µM; TGI [16]: 0.706 µM; GI50 [17]: 0.26 µM; TGI [17]: 0.901 µM; GI50 [18]: 0.23 µM; TGI [18]: 0.499 µM; GI50 [19]: 0.397 µM; TGI [19]: 1.59 µM; GI50 [20]: 1.18 µM; TGI [20]: 3.6 µM; GI50 [21]: 1.55 µM; TGI [21]: 4.88 µM; GI50 [22]: 0.282 µM; TGI [22]: 0.762 µM; GI50 [23]: 0.876 µM; TGI [23]: > 100 µM; GI50 [24]: 0.244 µM; TGI [24]: 0.651 µM; GI50 [25]: 2.15 µM; TGI [25]: 4.94 µM; GI50 [26]: 0.275 µM; TGI [26]: 0.706 µM; GI50 [27]: 0.26 µM; TGI [27]: 0.825 µM; GI50 [28]: 0.149 µM; TGI [28]: 0.585 µM
